From patent publication US20050287070A1, “Ligand-specific opening of a gated-porin channel in the outer membrane of living bacteria” (priority 1997, published 2005)

Target: T1, Escherichia coli ferric enterobactin receptor, FepA (FepAE280C) (Escherichia coli, UniProt P05825, E302C)
T1 construct: expressed in transfected cells; host or cells: E. coli KDF541 (fepA, tonB+) carrying pFepAE280C; also KDF570 (fepA, tonB)
Assay type: cell-based
Description: Indicated at (A) are ESR analyses of MTSL-labeled bacteria expressing FepAE280C, KDF541(9) containing pITS449 of pFepAE280C was grown in LB medium and subcultured into T medium plus appropriate nutritional supplements at 1%. After 16 hours, bacteria were harvested and suspended in labeling buffer [50 mM Mops and 60 mM NaCl (PH7.5)]. Spin labels were added (to a final concentration of 20 μM MTSL or 10 μM MAL6) and incubated 2 hours at room temperature with shaking, and the cells were washed twice with reaction buffer containing 0.05% Tween-20 and once with reaction buffer alone. […] For ESR analysis, 10^10 cells were suspended in 100 μl of 0.01 M NaHPO4 (pH 6.9) containing 0.4% glucose. X-band spectra of MTSL-labeled KDF541/pFepAE280C (top), KDF541/pITS449 (fepA^+; center), or KDF541 (fepA; bottom) were recorded on a Bruker EMX spectrometer, operating at 9.8 GHz with a total scan range of 150 G and 100-kHz modulation frequency, at 4° C. in a quartz flat cell. Peaks a and b show the position of strongly and weakly immobilized spin labels, respectively. Indicated at (B) are [^125I]-labeled protein A Western blots with anti-MAL6 sera. MAL6 was coupled to bovine serum albumin (BSA) and ovalbumin (OVA). New Zealand White rabbits were immunized with BSA-MAL6 conjugates [100 μg/week for 1 month (29)], and polyclonal serum was collected in week 5 and assayed for antigen specificity by enzyme-linked immunosorbent assay (30) and Western blots against BSA, BSA-MAL6, OVA, and OVA-MAL6 (lanes 1 through 4, respectively). Lysates (5×10^7 cells) of KDF541, KDF541/pITS449, and KDF541/pFepAE280C, previously labeled with MAL6, as described above, were reacted with the anti-MAL6 polyclonal serum (lanes 5 through 7, respectively). Arrows indicate the positions of (top to bottom) FepAE280C-MAL6, BSA-MAL6, BSA, and OVA-MAL6.
KDF541/pFepAE280C was grown, spin-labeled, and prepared as described in FIG. 1. Signal-averaged X-band spectra (six field sweeps collected over an 8-minute period) of spin-labeled bacteria were recorded at 4° C. as indicated at (A) and again after warming the flat cell to 37° C. [indicated at (B) (31)]. A fresh aliquot of cells from the same labeling reaction was suspended in saturating ferric enterobactin (300 μM) at 4° C. as indicated at (C), the sample was warned to 37° C., and spectra were recorded after 5 minutes, as indicated at (D), and 15 minutes, as indicated at (E) (midpoints of the signal-average measurements). The bacteria were then cooled again to 4° C. for 30 minutes, and spectra were recorded, as indicated at (F). Each of the spectra was double-integrated, as indicated at (G), from 3405 to 3555 G to determine the total number of MTSL spins (O) and from 3443 to 3477 G to determine the spins derived from the strongly immobilized (a) and weakly immobilized (b) peaks (●).
KDF541/pFepAE280C was grown, spin-labeled, and prepared as described in FIG. 1. Singla-averaged X-band spectra (six field sweeps collected over an 8-minute period) of spin-labeled bacteria were recorded in the presence of saturating levels of colicin B (10 μM) at 4° C., as indicated at (A). The sample was warmed to 37° C. and analyzed after 5 minutes, as indicated at (B), 15 minutes, as indicated at (C), and 75 minutes, as indicated at (D) (midpoints of signal average measurement before recooling to 4° C., as indicated at (E). The same strain was grown in minimal media and starved for glucose for 2 hours to deplete its energy stores, spin-labeled, and exposed to colicin B (10 μM) at 37° C. for 30 minutes, as indicated at (F). The spectra were double-integrated, as indicated at (G), as described in FIG. 2.
KDF541/pFepAE280C was grown, spin-labeled, and prepared as described in FIG. 1.

[1] = ferric enterobactin in excess, 37° C.

T1 sequence (P05825 23-746 E302C): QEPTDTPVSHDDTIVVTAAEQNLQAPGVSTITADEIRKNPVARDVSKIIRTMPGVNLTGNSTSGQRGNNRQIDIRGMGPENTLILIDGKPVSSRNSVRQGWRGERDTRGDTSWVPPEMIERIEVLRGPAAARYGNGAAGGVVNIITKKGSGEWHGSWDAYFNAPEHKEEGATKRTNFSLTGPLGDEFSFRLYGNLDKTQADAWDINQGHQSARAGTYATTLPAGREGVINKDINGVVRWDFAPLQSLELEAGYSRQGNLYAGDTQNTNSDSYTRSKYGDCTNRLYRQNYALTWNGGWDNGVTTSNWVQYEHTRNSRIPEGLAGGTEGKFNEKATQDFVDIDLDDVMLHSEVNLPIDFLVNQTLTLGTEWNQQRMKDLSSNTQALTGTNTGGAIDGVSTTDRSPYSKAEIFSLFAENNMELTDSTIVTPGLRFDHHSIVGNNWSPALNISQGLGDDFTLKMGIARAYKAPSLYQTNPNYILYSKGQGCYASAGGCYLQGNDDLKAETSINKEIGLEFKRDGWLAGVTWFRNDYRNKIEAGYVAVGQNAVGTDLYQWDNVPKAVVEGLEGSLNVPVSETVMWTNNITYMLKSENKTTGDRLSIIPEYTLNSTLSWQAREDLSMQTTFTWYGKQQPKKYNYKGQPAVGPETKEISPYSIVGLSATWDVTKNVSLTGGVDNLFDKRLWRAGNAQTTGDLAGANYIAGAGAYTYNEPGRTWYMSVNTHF

Molecule | time over which immobilization of MTSL at residue 280 became more severe (cells with bound colicin warmed to 37° C.) | effect on MTSL mobility during continual incubation at 4° C. (colicin bound, 4° C., over the course of 1 hour) | effect on MTSL mobility in signal-averaged X-band spectra (saturating colicin B (10 μM), 37° C.) | period over which the burst of spin-label motion peaked and receded (ferric enterobactin 300 μM, 37° C., continuous monitoring at 3472 G) | effect on MTSL mobility (weakly immobilized peak at 3472 G) monitored over time (ferric enterobactin 300 μM, KDF541/pFepAE280C, glucose present, warmed from 4° C. to 37° C.) | time for first surge in motion to decay [1] | time for first surge in motion to peak [1]
colicin B | 30 min | did not take place | progressively eliminated weakly immobilized spins | – | – | – | –
O=C(N[C@H]1COC(=O)[C@@H](NC(=O)c2cccc([O-])c2[O-])COC(=O)[C@@H](NC(=O)c2cccc([O-])c2[O-])COC1=O)c1cccc([O-])c1[O-].[Fe+3] [ferric enterobactin] | – | – | – | 5 min | stimulated a burst of motion | 140 s | 140 s
